Experimental data as given in patent US5084449A, “Anti-bacterial compositions comprising a substituted bis-(4-aminophenyl)-sulfone and a dihydro-folic acid reductase” (Dr. Karl Thomae GmbH, priority 1984, dated 1992).

system: 7,8-dihydropteroic acid-synthetase; experiment: inhibiting effect on 7,8-dihydropteroic acid synthesis in cell-free enzyme extract of plasmodia (HPLC); format: biochemical; details: concentration giving 50% reduction of 7,8-dihydropteroic acid synthesis; cell-free enzyme extract of Plasmodium berghei; incubation 4 hours; HPLC/UV; read-out: i50
Experimental: M=4'-Amino-2-methyl-4-propylamino-diphenylsulfone were tested for their biological activity in cell-free enzyme extract of Plasmodiumberghei as follows.
Plasmodia are isolated from mouse blood infected with Plasmodium berghei in accordance with the following reference (Heidrich, H. -G. et al., Z. Parasitenkd. 59: 151 (1979). The plasmodia were opened by ultrasound. Proteins with […] acid synthetase activity are concentrated by gel filtration.
The inhibiting effect on 7,8-dihydropteroic acid synthesis of plasmodia is determined as follows:
Under optimum reaction conditions, i.e. Vmax for the reaction which is to be inhibited, the concentration of inhibitor in the new compounds resulting in a 50% reduction in the enzyme synthesis performance is determined. For this purpose the quantity of 7,8-dihydropteroic acid synthesised from the enzyme extract is determined by means of high performance liquid chromatography (HPLC) using a UV detector after an incubation period of 4 hours. It was established that the synthesis of 7,8-dihydropteroic acid proceeded in a linear manner during this period.
The i50 values obtained by this method for a selection of the compounds claimed and those of the comparison preparations bis (4-aminophenyl)sulfone (Dapsone®, DDS) and N^1 -(5,6-dimethoxy-4-pyrimidinyl)-sulfanilamide (Fanasil®) are given in the following Table: […]

SMILES | IC50 [µM]
Nc1ccc(S(=O)(=O)c2ccc(N)cc2)cc1 [Dapsone ®, bis (4-aminophenyl)sulfone, reference compound] | 12.4
COc1ncnc(NS(=O)(=O)c2ccc(N)cc2)c1OC [Fanasil ®, N^1-(5,6-dimethoxy-4-pyrimidinyl)-sulfanilamide, reference compound] | 200
CCNc1ccc(S(=O)(=O)c2ccc(N)cc2)c(C(F)(F)F)c1 [Substance D, 4-Ethylamino-4'-amino-2-trifluoromethyl-diphenyl-sulfone] | 5.86
Nc1ccc(S(=O)(=O)c2ccc(N)cc2CO)cc1 [Substance E, 4,4'-Diamino-2-hydroxymethyl-diphenylsulfone] | 4.9
CC(O)c1cc(N)ccc1S(=O)(=O)c1ccc(N)cc1 (stereo not shown) [Substance F, 4,4'-Diamino-2-(1-hydroxyethyl)-diphenylsulfone] | 10.4
CNc1cc(N)ccc1S(=O)(=O)c1ccc(N)cc1 [Substance H, 4,4'-Diamino-2-(N-methylamino)-diphenylsulfone] | 4.1

More lines, in order of falling IC50, values ahead:

IC50 [µM] | SMILES
12.9 | CN(C)c1cc(N)ccc1S(=O)(=O)c1ccc(N)cc1 [Substance G, 4,4'-Diamino-2-(N,N-dimethylamino)-diphenylsulfone]
12.9 | CC(=O)c1cc(N)ccc1S(=O)(=O)c1ccc(N)cc1 [Substance K, 4,4'-Diamino-2-methylcarbonyl-diphenylsulfone]
12.5 | N#Cc1cc(N)ccc1S(=O)(=O)c1ccc(N)cc1 [Substance I, 4,4'-Diamino-2-cyano-diphenylsulfone]
2.94 | CNc1ccc(S(=O)(=O)c2ccc(N)cc2)c(C)c1 [Substance L, 4'-Amino-2-methyl-4-methylamino-diphenylsulfone]
2.67 | CC(C)Nc1ccc(S(=O)(=O)c2ccc(N)cc2)c(Cl)c1 [Substance B, 4'-Amino-2-chloro-4-isopropylamino-diphenylsulfone]
2.62 | CCNc1ccc(S(=O)(=O)c2ccc(N)cc2)c(C)c1 [Substance C, 4-Ethylamino-4'-amino-2-methyl-diphenylsulfone]
2.44 | CCCNc1ccc(S(=O)(=O)c2ccc(N)cc2)c(C)c1 [Substance M, 4'-Amino-2-methyl-4-propylamino-diphenylsulfone]
2.1 | CCNc1ccc(S(=O)(=O)c2ccc(N)cc2)c(Cl)c1 [Substance A, 4-Ethylamino-4'-amino-2-chloro-diphenylsulfone]

system: not listed separately; experiment: methemoglobin formation after oral administration to cats; format: in vivo; details: 200 mg/kg by oral route
Excerpt: Moreover, in contrast to Dapsone®, the new compounds are well tolerated and in particular show a very low methemoglobin formulation.

methemoglobin formulation | SMILES
no methemoglobin formulation is detected | N#Cc1cc(N)ccc1S(=O)(=O)c1ccc(N)cc1 [Substance I, 4,4'-Diamino-2-cyano-diphenylsulfone]
no methemoglobin formulation is detected | CCCNc1ccc(S(=O)(=O)c2ccc(N)cc2)c(C)c1 [Substance M, 4'-Amino-2-methyl-4-propylamino-diphenylsulfone]
